# Measured values taken from US11040954B1, “CXCR3 receptor agonists” (RECEPTOS LLC, priority 2016, dated 2021).
# Biological target: T1, CXCR3 (Homo sapiens, UniProt P49682)
# T1 construct: host or cells: CHO-K1 (cAMP Hunter CHOK1 CXCR3 Gi cell line)
# T1 sequence (P49682 1-368): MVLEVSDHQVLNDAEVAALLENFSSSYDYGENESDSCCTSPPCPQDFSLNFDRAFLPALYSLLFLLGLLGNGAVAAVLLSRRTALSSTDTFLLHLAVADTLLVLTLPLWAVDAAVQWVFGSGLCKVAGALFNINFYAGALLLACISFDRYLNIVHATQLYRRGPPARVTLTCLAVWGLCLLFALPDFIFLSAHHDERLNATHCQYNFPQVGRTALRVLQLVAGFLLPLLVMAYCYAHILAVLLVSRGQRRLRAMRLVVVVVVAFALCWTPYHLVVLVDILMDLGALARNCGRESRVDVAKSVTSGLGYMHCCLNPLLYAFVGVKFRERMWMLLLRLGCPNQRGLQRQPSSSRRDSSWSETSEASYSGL
# Assay: CXCR3 cAMP agonist assay (cAMP Hunter CHOK1 CXCR3 Gi cell line, forskolin-stimulated, HitHunter cAMP detection)
# Assay type: cell-based
# Details: not given
# Procedure, shortened: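 CHOK1 cells expressing human CXCR3 with Gi coupling, 50,000/well in suspension in HBSS/10 mM HEPES/0.1% BSA pH 7.4, were co-treated with 20 μM forskolin and compound (12-point, 0-10 μM, 1% DMSO) for 30 min. cAMP was read by enzyme-complementation luminescence; CXCL11 dose response set maximum efficacy.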
row,Compound,EC50 [nM]
1,Cc1cc(NC(=O)[C@H](CCN)NC(=O)[C@@H]2Cc3ccccc3CN2C(=O)CCC(=O)N2CCC(=O)CC2)ccc1Cl [Compound 12-86],250 to 500

# Same assay, conditions: cAMP Hunter CHOK1 CXCR3 Gi cells, 20 μM forskolin, 30 minutes; read-out: Activity (CXCR3 cAMP agonist assay compound EC50)
row,Compound,EC50 [nM]
1,"Cc1cnc(NC(=O)[C@H](CCN)NC(=O)[C@@H]2Cc3ccccc3CN2C(=O)CCC(=O)c2ccccc2)cc1Cl [Compound 27-1, (S)—N—((S)-4-amino-1-((4-chloro-5-methylpyridin-2-yl)amino)-1-oxobutan-2-yl)-2-(4-oxo-4-phenylbutanoyl)-1,2,3,4-tetrahydroisoquinoline-3-carboxamide]",< 50
2,Cc1cc(NC(=O)[C@H](CCN)NC(=O)[C@@H]2Cc3ccccc3CN2C(=O)CCC(=O)N2CCC(C(C)C)CC2)ccc1Cl [Compound 12-60],< 50
3,CN(CCC(C)(C)C)C(=O)CCC(=O)N1Cc2ccccc2C[C@H]1C(=O)N[C@@H](CCN)C(=O)Nc1ccc(Cl)c(Cl)c1F [Compound 15-44],< 50
4,Cc1ccc(NC(=O)[C@H](CCCCN)NC(=O)[C@@H]2Cc3ccccc3CN2C(=O)CCC(=O)c2ccccc2)cc1Cl [Compound 1-27],< 50
5,Cc1cc(NC(=O)[C@H](CCN)NC(=O)[C@@H]2Cc3ccccc3CN2C(=O)CCC(=O)N2CCCC(C(C)C)C2)ccc1Cl (some centres unmarked) [Compound 12-96],< 50
6,Cc1cccc(NC(=O)[C@H](CCN)NC(=O)[C@@H]2Cc3ccccc3CN2C(=O)CCC(=O)c2ccccc2)c1F [Compound 2-32],< 50
7,Cc1cc(NC(=O)[C@H](CCN)NC(=O)[C@@H]2Cc3ccccc3CN2C(=O)CCC(=O)N2CCCCCC2)ccc1Cl [Compound 12-13],< 50
8,NCC[C@H](NC(=O)[C@@H]1Cc2ccccc2CN1C(=O)CCC(=O)c1ccccc1)C(=O)Nc1cccc(-c2ccccc2)c1 [Compound 2-29],250 to 500
9,NCC[C@H](NC(=O)[C@@H]1Cc2ccccc2CN1C(=O)CCC(=O)c1ccccc1)C(=O)Nc1ccc(Cl)cc1Cl [Compound 2-52],50 to 250
10,NCC[C@H](NC(=O)[C@@H]1Cc2ccccc2CN1C(=O)CCC(=O)N1CCC2(CC1)CC(F)(F)C2)C(=O)Nc1ccc(Cl)c(Cl)c1F [Compound 15-24],250 to 500
11,Cc1cc(NC(=O)[C@H](CCN2CCOCC2)NC(=O)[C@@H]2Cc3ccccc3CN2C(=O)CCC(=O)c2ccccc2)ccc1Cl [Compound 5-4],50 to 250
12,NCC[C@H](NC(=O)[C@@H]1Cc2ccccc2CN1C(=O)CCC(=O)c1ccccc1)C(=O)Nc1ccc(F)c(C(F)(F)F)c1 [Compound 2-14],< 50
13,COc1c(NC(=O)[C@H](CCN)NC(=O)[C@@H]2Cc3ccccc3CN2C(=O)CCC(=O)c2ccccc2)ccc2c1CCC2 [Compound 2-58],50 to 250
14,Cc1cc(NC(=O)[C@H](CCN)NC(=O)[C@@H]2Cc3ccccc3CN2C(=O)CCC(=O)N2CCC(C(F)(F)F)C2)ccc1Cl (some centres unmarked) [Compound 12-52],< 50
15,Cc1cc(NC(=O)[C@H](CCN)NC(=O)[C@@H]2Cc3ccccc3CN2C(=O)CCC(=O)N(C)CC(F)(F)F)ccc1Cl [Compound 12-119],250 to 500
16,Cc1cc(NC(=O)[C@H](CCN)NC(=O)[C@@H]2Cc3ccccc3CN2C(=O)CCC(=O)N2CCS(=O)(=O)CC2)ccc1Cl [Compound 12-17],50 to 250
17,Cc1ccc(NC(=O)[C@H](CCCNC(=N)N)NC(=O)[C@@H]2Cc3ccccc3CN2C(=O)CCC(=O)c2ccccc2)cc1C [Compound 1-33],< 50
18,Cc1cc(NC(=O)[C@H](CCNCC(F)(F)F)NC(=O)[C@@H]2Cc3ccccc3CN2C(=O)CCC(=O)c2ccccc2)ccc1Cl [Compound 8-6],50 to 250
19,Cc1cc(NC(=O)[C@H](CCN)NC(=O)[C@@H]2Cc3ccccc3CN2C(=O)CCC(=O)N2CCC3(CCC3)CC2)ccc1Cl [Compound 12-59],< 50
20,Cc1cc(NC(=O)[C@H](CCN)NC(=O)[C@@H]2Cc3ccccc3CN2C(=O)CCC(=O)N2C[C@H](C)C[C@H](C)C2)ccc1Cl [Compound 12-39],< 50
21,COc1ccc(C(=O)CCC(=O)N2Cc3ccccc3C[C@H]2C(=O)N[C@@H](CCCCN)C(=O)Nc2ccc(Cl)c(C)c2)cc1F [Compound 7-9],> 500
22,NCCCC[C@H](NC(=O)[C@@H]1Cc2ccccc2CN1C(=O)CCC(=O)c1ccccc1)C(=O)Nc1ccccc1F [Compound 1-15],250 to 500
23,Cc1cc(NC(=O)[C@H](CCN)NC(=O)[C@@H]2Cc3ccccc3CN2C(=O)CCC(=O)N2CCCC(O)C2)ccc1Cl (some centres unmarked) [Compound 12-62],< 50
24,NCC[C@H](NC(=O)[C@@H]1Cc2ccccc2CN1C(=O)CCC(=O)N1CCCCC12CCC2)C(=O)Nc1ccc(Cl)c(Cl)c1F [Compound 15-7],< 50
25,Cc1cc(NC(=O)[C@H](CCN)NC(=O)[C@@H]2Cc3ccccc3CN2C(=O)CCC(=O)N2CCN(C)C2)ccc1Cl [Compound 12-145],< 50

row,Compound,EC50 [nM]
1,Cc1cc(NC(=O)[C@H](CCCCN)NC(=O)[C@@H]2Cc3ccccc3CN2C(=O)CCC(=O)c2cccc(Cl)c2)ccc1Cl [Compound 7-2],50 to 250
2,Cc1cc(NC(=O)[C@H](CCN)NC(=O)[C@@H]2Cc3ccccc3CN2C(=O)CCC(=O)N2CCC3CCCCC32)ccc1Cl (some centres unmarked) [Compound 12-95],< 50
3,Cc1cc(NC(=O)[C@H](CCN)NC(=O)[C@@H]2Cc3ccccc3CN2C(=O)CCC(=O)NCCC(F)(F)F)ccc1Cl [Compound 12-90],50 to 250
4,Cc1cc(NC(=O)[C@H](CCN)NC(=O)[C@@H]2Cc3ccccc3CN2C(=O)CCC(=O)N2CC3(CCOCC3)C2)ccc1Cl [Compound 12-24],250 to 500
5,O=C(CCC(=O)N1Cc2ccccc2C[C@H]1C(=O)N[C@@H](CCN1CCS(=O)(=O)CC1)C(=O)Nc1ccc2c(c1)CCC2)c1ccccc1 [Compound 23-9],50 to 250
6,Cc1cc(NC(=O)[C@H](CCCNC(=N)N)NC(=O)[C@@H]2Cc3ccccc3CN2C(=O)CCC(=O)c2ccccc2)ccc1Cl [Compound 1-32],< 50
7,"Cc1cc(NC(=O)C(CC2CC[N+](C)(C)CC2)NC(=O)[C@@H]2Cc3ccccc3CN2C(=O)CCC(=O)c2ccccc2)ccc1Cl (mixture of isomers) [Compound 6-2, 4-((S)-3-((4-chloro-3-methylphenyl)amino)-3-oxo-2-((S)-2-(4-oxo-4-phenylbutanoyl)-1,2,3,4-tetrahydroisoquinoline-3-carboxamido)propyl)-1,1-dimethylpiperidin-1-ium iodide]",50 to 250
8,Cc1cc(NC(=O)[C@H](CCN)NC(=O)[C@@H]2Cc3ccccc3CN2C(=O)CCC(=O)N2CCN(C(=O)N(C)C)CC2)ccc1Cl [Compound 12-109],250 to 500
9,NCC[C@H](NC(=O)[C@@H]1Cc2ccccc2CN1C(=O)CCC(=O)c1ccccc1)C(=O)Nc1ccc2c(c1)CCCC2 [Compound 2-46],< 50
10,COCCN(C)C(=O)CCC(=O)N1Cc2ccccc2C[C@H]1C(=O)N[C@@H](CCN)C(=O)Nc1ccc(Cl)c(C)c1 [Compound 12-113],250 to 500
11,Cc1cc(NC(=O)[C@H](CCN)NC(=O)[C@@H]2Cc3ccccc3CN2C(=O)CCC(=O)N2CCCC[C@@H]2C)ccc1Cl [Compound 12-56],< 50
12,Cc1cccc(NC(=O)[C@H](CCCCN)NC(=O)[C@@H]2Cc3ccccc3CN2C(=O)CCC(=O)c2ccccc2)c1 [Compound 1-10],50 to 250
13,CO[C@H]1CCCN(C(=O)CCC(=O)N2Cc3ccccc3C[C@H]2C(=O)N[C@@H](CCN)C(=O)Nc2ccc(Cl)c(Cl)c2F)C1 [Compound 15-26],< 50
14,NCC[C@H](NC(=O)[C@@H]1Cc2ccc(F)cc2CN1C(=O)CCC(=O)N1CCCC12CCC2)C(=O)Nc1ccc(Cl)c(Cl)c1F [Compound 15-59],< 50
15,CCc1c(NC(=O)[C@H](CCN)NC(=O)[C@@H]2Cc3ccccc3CN2C(=O)CCC(=O)c2ccccc2)ccc(Cl)c1C [Compound 2-54],> 500
16,NCC[C@H](NC(=O)[C@@H]1Cc2ccccc2CN1C(=O)CCC(=O)c1ccccc1)C(=O)Nc1cc(Cl)c(Cl)cc1F [Compound 2-20],50 to 250
17,CC(C)C1CCN(C(=O)CCC(=O)N2Cc3ccccc3C[C@H]2C(=O)N[C@@H](CCN)C(=O)Nc2ccc(Cl)c(Cl)c2F)C1 (some centres unmarked) [Compound 15-9],< 50
18,NCC[C@H](NC(=O)[C@@H]1Cc2ccccc2CN1C(=O)CCC(=O)c1ccccc1)C(=O)Nc1cc(Cl)c(Cl)cn1 [Compound 4-15],250 to 500
19,Cc1cc(NC(=O)[C@H](Cc2cncn2C)NC(=O)[C@@H]2Cc3ccccc3CN2C(=O)CCC(=O)c2ccccc2)ccc1Cl [Compound 5-2],50 to 250
20,"Cc1cc(NC(=O)C2(NC(=O)[C@@H]3Cc4ccccc4CN3C(=O)CCC(=O)c3ccccc3)CCN(CCO)CC2)ccc1Cl [Compound 20-1, (S)—N-(4-((4-chloro-3-methylphenyl)carbamoyl)-1-(2-hydroxyethyl)piperidin-4-yl)-2-(4-oxo-4-phenylbutanoyl)-1,2,3,4-tetrahydroisoquinoline-3-carboxamide]",50 to 250
21,CC(C)c1ccc(NC(=O)[C@H](CCCCN)NC(=O)[C@@H]2Cc3ccccc3CN2C(=O)CCC(=O)c2ccccc2)cc1 [Compound 1-7],> 500
22,Cc1cc(NC(=O)[C@H](CCN)NC(=O)[C@@H]2Cc3ccccc3CN2C(=O)CCC(=O)N2CCC3(CCC3)C2)ccc1Cl [Compound 12-94],< 50
23,CC(C)N(C(=O)CCC(=O)N1Cc2ccccc2C[C@H]1C(=O)N[C@@H](CCN)C(=O)Nc1ccc(Cl)c(Cl)c1F)C(C)C [Compound 15-39],250 to 500
24,Cc1cc(C#N)c(NC(=O)[C@H](CCN)NC(=O)[C@@H]2Cc3ccccc3CN2C(=O)CCC(=O)c2ccccc2)cc1Cl [Compound 35-2],< 50
